Patent US12698306B2, “Bile acid-GCPII inhibitor conjugates to treat inflammatory diseases, including inflammatory bowel disease (IBD)” (The Johns Hopkins University, priority 2020, dated 2026)

Legend:
[1] = system: dextran sodium sulfate (DSS)-induced colitis; test: Dextran sodium sulfate (DSS)-induced colitis model, disease activity index (DAI); format: in vivo, mice (C57Bl/6NHsd); details: for anti-IBD activity: disease activity index (DAI): once daily oral
Experimental: Colitis was induced using either 2.5% DSS (FIG. 1A, FIG. 1B, and FIG. 1C) or 4.0% DSS (FIG. 1D, FIG. 1E, FIG. 1F, FIG. 1G, and FIG. 1H) resulting in the characteristic development of diarrhea, rectal bleeding and body weight loss. These parameters were evaluated daily, scored and summated to compute a disease activity index (DAI). Mice received once daily oral treatment with test article or vehicle beginning on Study Day 0 and continuing through Study Day 7. […] All data depicted as mean+/−SEM. 2-way ANOVA, *p<0.05, **p<0.01, ***p<0.001;
Colitis was induced using 4.0% DSS resulting in the characteristic development of diarrhea, rectal bleeding and body weight loss. These parameters were evaluated daily, scored and summated to compute a disease activity index (DAI). Mice received once daily oral treatment with test article or vehicle beginning on Study Day 0 and continuing through Study Day 6. […] All data depicted as mean+/−SEM. 2-way ANOVA, *p<0.05, **p<0.01, ***p<0.001;
(§1) Six-week old male C57Bl/6NHsd mice were challenged with 4.0% DSS in drinking water from Study Day 0-5 followed by exposure to freshwater, inducing severe acute colitis. Oral (S)-LTP592 was administered once daily beginning on study day 0 at 1 mg/kg, 10 mg/kg and 100 mg/kg 2-PMPA molar equivalent doses. (FIG. 4A) 100 mg/kg eq. […] (S)-LTP592, while GCPII was only 40% inhibited at the non-efficacious dose of 1 mg/kg eq. (n=8/group; **p<0.01 2-tailed t-test). (FIG. 4C) Strikingly, 100 mg/kg eq. […] (FIG. 4D, FIG. 4E, and FIG. 4F) Efficacy of 100 mg/kg eq. (S)-LTP592 in the DSS-colitis model was driven by improvements in (FIG. 4C) stool score and (FIG. 4D) bleeding score (n=15/group; ***p<0.001, *p<0.05 2-way ANOVA);
(§2) Six-week old male C57Bl/6NHsd mice were challenged with 4.0% DSS in drinking water from study day 0-6 followed by exposure to freshwater. Oral (S)-LTP592 was administered once daily beginning on study day 0 at 100 mg/kg 2-PMPA molar equivalent doses. (FIG. 5A, FIG. 5B, and FIG. 5C) 100 mg/kg eq. […] (FIG. 5D, FIG. 5E, FIG. 5F, and FIG. 5G) A subset of mice (n=8/group) were euthanized on study day 5, prior to fulminant colitis. Their colons were harvested and processed for flow cytometry. […] All DSS-induced changes in myeloid inflammatory cell populations were attenuated by (S)-IBD3540 treatment (n=8-9/group, **p<0.01, *p<0.05, 2-tailed t-test).
Six- to eight-week-old male C57BM6NHsd mice were acquired from Harlan Laboratories/Envigo (Indianapolis, IN). Animals were housed in the Johns Hopkins animal facility under controlled temperature (25° C.) and photoperiod (12-hour-light/12-hour-dark cycle) with access to standard diet and water (or specified DSS-containing drinking water) ad libitum. All animal studies were approved by the Animal Care and Use Committee of Johns Hopkins University, Baltimore, MD and adhered to all of the applicable institutional and governmental guidelines for the humane treatment of laboratory animals. Mice were housed 4-5 per cage and allowed to acclimate to their environment for at least 5 days before inclusion in experiments. Mice (n=5-30/group) were randomized by body weight into equivalent experimental groups: (a) DSS with vehicle or (b) DSS with test article. Acute colitis was induced by administration of 2.5%-4.0% (w/v) DSS (MW 40,000-50,000; Affymetrix Santa Clara, CA) in the drinking water for 5 days, followed by exposure to freshwater for two days. Daily oral (PO) dosing of vehicle or test article was initiated on study day 0 and was continued until sacrifice on study day 7. […]

[2] = biological target: recombinant human GCPII (Homo sapiens, UniProt Q04609); test: GCPII inhibition, radiosubstrate based assay; format: biochemical; details: GCPII IC50 ratio, (S)- vs (R)-enantiomer
Experimental: FIG. 3A, FIG. 3B, FIG. 3C, and FIG. 3D show IC50 values for selected bile acid GCPII inhibitor conjugates. IC50s were determined for selected inhibitors using a previously described radiosubstrate based assay employing recombinant human GCPII. Rojas et al., 2002.
Glutamate Carboxypeptidase II (GCPII) is a metallopeptidase that catalyzes the hydrolysis of N-acetylated aspartate-glutamate (NAAG) to N-acetyl aspartate (NAA) and glutamate and cleaves terminal glutamate moieties sequentially from folate polyglutamate (Ristau et al., 2013; Mesters et al, 2006; Slusher et al, 2013). In certain embodiments, the presently disclosed compounds of formula (I) are GCPII inhibitors. As used herein, a GCPII inhibitor is a molecule that decreases or inhibits the activity of GCPII. The modulation of the activity of GCPII may be detected by use of an assay for the intrinsic N-acetylated alpha-linked acidic dipeptidase (AALADase) activity of GCPII (Tang et al, 2003; Robinson et al 1987: Lupoid et al., 2002; U.S. Patent App. Pub. No. 20110064657). Inhibition curves may be determined using semi-log plots and IC50 values determined at the concentration at which enzyme activity was inhibited by 50%.

[3] = biological target: T1, GCPII (Mus musculus, UniProt O35409); test: GCPII enzymatic activity in murine colon tissue (radioenzymatic assay); format: in vivo, mice; details: colon collected 4-hour post dose on study day 6
T1 construct: from tissue; host or cells: mouse proximal colon
Experimental: as §1
A 5-mm length location-matched segment of proximal colon was harvested and flash-frozen following euthanasia on study day 6 of DSS-induced colitis, 4-hours after the final dose with vehicle or compound. Glutamate carboxypeptidase activity was measured using a radioenzymatic assay that was optimized and described previously. Rojas et al., 2002; Robinson et al., 1987.

[4] = system: myeloid inflammatory cell populations in colon; test: Flow cytometry of colonic lamina propria mononuclear cells in DSS colitis; format: in vivo, mice; details: 4.0% DSS, 100 mg/kg eq. oral, study day 5
Experimental: as §2
On DSS study day 5, a subset of mice (n=8-9/group) were euthanized and colons were processed for flow cytometry. Specifically, the distal 3 cm of colon was separated, mesenteric fat dissected away and intestinal contents removed. Then colon was transected longitudinally, washed with PBS, and minced thoroughly. Minced colon tissues were transferred into 5 ml HBSS with 10 mM HEPES containing 5% FBS and 0.2 mg/ml collagenase D (Sigma). Tissues were digested at 37° C. for 20 min with constant agitation (250 r.p.m.), then vigorously vortexed for 20 s. The resulting cell suspension containing LPMCs was filtered through a 70-μm nylon cell strainer and washed with 10 ml PBS. […]

[5] = 2.5% or 4.0% DSS, Study Day 0-7, 10 to 100 mg/kg 2-PMPA molar equivalent dose, DAI on Study Days 6 and 7
[6] = 4.0% DSS, Study Day 0-6, DAI on Study Days 4 through 6
[7] = 4.0% DSS, 100 mg/kg eq. oral, study day 6

T1 sequence (O35409 whole entry): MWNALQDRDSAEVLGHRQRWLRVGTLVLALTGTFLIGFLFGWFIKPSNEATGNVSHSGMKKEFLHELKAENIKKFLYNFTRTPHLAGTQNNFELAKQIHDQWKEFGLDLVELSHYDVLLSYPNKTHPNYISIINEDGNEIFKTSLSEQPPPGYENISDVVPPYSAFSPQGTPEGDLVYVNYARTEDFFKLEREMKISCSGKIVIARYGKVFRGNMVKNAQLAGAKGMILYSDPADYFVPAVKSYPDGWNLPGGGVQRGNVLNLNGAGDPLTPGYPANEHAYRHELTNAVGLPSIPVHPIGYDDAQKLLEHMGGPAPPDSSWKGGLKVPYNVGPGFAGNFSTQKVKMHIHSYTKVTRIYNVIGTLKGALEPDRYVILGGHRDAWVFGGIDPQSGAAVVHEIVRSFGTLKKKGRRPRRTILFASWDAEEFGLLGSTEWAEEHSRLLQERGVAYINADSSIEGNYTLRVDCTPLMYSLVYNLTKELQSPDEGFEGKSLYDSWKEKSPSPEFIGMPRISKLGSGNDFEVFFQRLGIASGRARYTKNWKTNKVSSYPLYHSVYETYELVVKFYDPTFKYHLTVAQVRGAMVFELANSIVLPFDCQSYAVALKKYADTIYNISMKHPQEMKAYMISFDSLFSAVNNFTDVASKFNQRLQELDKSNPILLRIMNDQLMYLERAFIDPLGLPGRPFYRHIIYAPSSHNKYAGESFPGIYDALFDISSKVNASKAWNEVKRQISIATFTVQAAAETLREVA
recombinant human GCPII, sequence (Q04609 whole entry): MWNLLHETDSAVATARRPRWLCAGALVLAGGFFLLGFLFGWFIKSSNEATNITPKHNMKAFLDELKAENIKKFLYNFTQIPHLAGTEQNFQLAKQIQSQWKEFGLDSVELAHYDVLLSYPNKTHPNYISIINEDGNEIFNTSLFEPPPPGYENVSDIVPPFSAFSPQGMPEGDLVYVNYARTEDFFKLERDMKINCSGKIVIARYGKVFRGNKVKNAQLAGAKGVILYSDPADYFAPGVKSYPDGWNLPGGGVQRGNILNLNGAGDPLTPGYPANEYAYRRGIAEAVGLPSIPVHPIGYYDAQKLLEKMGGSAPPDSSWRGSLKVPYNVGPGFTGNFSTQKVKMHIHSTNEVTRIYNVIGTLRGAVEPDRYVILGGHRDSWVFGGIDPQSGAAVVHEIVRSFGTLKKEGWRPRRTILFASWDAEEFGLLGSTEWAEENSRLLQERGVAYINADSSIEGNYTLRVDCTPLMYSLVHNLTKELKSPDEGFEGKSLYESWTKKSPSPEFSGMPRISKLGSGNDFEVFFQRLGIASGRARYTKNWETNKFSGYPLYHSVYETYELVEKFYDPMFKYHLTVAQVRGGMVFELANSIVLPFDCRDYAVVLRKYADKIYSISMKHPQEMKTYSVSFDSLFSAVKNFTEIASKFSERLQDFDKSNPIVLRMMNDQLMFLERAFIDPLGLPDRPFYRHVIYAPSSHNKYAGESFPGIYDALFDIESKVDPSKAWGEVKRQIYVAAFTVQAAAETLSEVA

**Q.** With `C[C@H](CCNC(=O)CCC(CP(=O)(O)O)C(=O)O)[C@H]1CCC2C3C(CC[C@@]21C)[C@@]1(C)CC[C@@H](O)C[C@H]1C[C@@H]3O` (stereo partly drawn) [IS-101-020, 5-(((3R)-3-((3R,7S,10S,13R,17R)-3,7-Dihydroxy-10,13-dimethylhexadecahydro-1H-cyclopenta[a]phenanthren-17-yl)butyl)amino)-5-oxo-2-(phosphonomethyl)pentanoic acid] as the compound, how does the “anti-IBD activity: disease activity index (DAI)” value [1, 5] read?
**A.** significant reductions in DAI

**Q.** Which “anti-IBD activity: disease activity index (DAI)” value [1, 5] does the source give for `C[C@H](CCC(=O)OCOC(=O)CCC(CP(=O)(O)O)C(=O)O)C1CCC2C3CC[C@@H]4C[C@H](O)CC[C@]4(C)C3CC[C@@]21C` (mixture of isomers) [LTP582, 5-((((4R)-4-((3R,10S,13R)-3-Hydroxy-10,13-dimethylhexadecahydro-1H-cyclopenta[a]phenanthren-17-yl)pentanoyl)oxy)methoxy)-5-oxo-2-(phosphonomethyl)pentanoic acid] here?
**A.** inactive

**Q.** With `CC(C)C[C@H](NC(=O)N[C@@H](CCC(=O)OCOC(=O)CC[C@@H](C)[C@H]1CCC2C3CC[C@@H]4C[C@H](O)CC[C@]4(C)C3C[C@H](O)[C@@]21C)C(=O)O)C(=O)O` (stereo partly drawn) [IS-102-138, (2S,6S,16R)-6-Carboxy-16-((3R,10S,12S,13R,17R)-3,12-dihydroxy-10,13-dimethylhexadecahydro-1H-cyclopenta[a]phenanthren-17-yl)-2-isobutyl-4,9,13-trioxo-10,12-dioxa-3,5-diazaheptadecanoic acid] as the compound, how does the “anti-IBD activity: disease activity index (DAI)” value [1, 6] read?
**A.** significant reductions in DAI

**Q.** With `C[C@H](CCC(=O)OCOC(=O)c1ccc(CC(CCC(=O)NO)C(=O)O)cc1)C1CCC2C3CC[C@@H]4C[C@H](O)CC[C@]4(C)C3C[C@H](O)[C@@]21C` (some centres unmarked) [TT-220420] as the compound, how does the “anti-IBD activity: disease activity index (DAI)” value [1, 6] read?
**A.** significant reductions in DAI

**Q.** `C[C@H](CCC(=O)OCOC(=O)CCC(CP(=O)(O)O)C(=O)O)C1CCC2C3C(CC[C@@]21C)[C@@]1(C)CC[C@@H](O)C[C@H]1C[C@@H]3O` (stereo partly drawn) [LTP1054, 5-((((4R)-4-((3R,7S,12S,13R)-3,12-Dihydroxy-10,13-dimethylhexadecahydro-1H-cyclopenta[a]phenanthren-17-yl)pentanoyl)oxy)methoxy)-5-oxo-2-(phosphonomethyl) pentanoic acid] was tested. Which “anti-IBD activity: disease activity index (DAI)” value [1, 5] did it give?
**A.** inactive

**Q.** Which “potency relative to (R)-LTP592” value [2] does the source give for `C[C@H](CCC(=O)OCOC(=O)CC[C@H](CP(=O)(O)O)C(=O)O)C1CCC2C3CC[C@@H]4C[C@H](O)CC[C@]4(C)C3C[C@H](O)[C@@]21C` (stereo partly drawn) [(S)-LTP592] here?
**A.** 150 fold

**Q.** And the “inhibition of GCPII enzymatic activity in colon tissue” value (“inhibition” for short) ([3]; 1 mg/kg eq. oral)?
**A.** 40%

**Q.** And the “inhibition” value ([3]; 10 mg/kg eq. oral)?
**A.** > 75%

**Q.** And the “inhibition” value ([3]; 100 mg/kg eq. oral)?
**A.** > 75%

**Q.** What about the “DSS-induced changes in myeloid inflammatory cell populations (CD11b+ white blood cells, neutrophils, monocytes, transitioning monocytes)” value [4] of the same compound?
**A.** attenuated

**Q.** And the bleeding score ([1]; 4.0% DSS, 100 mg/kg eq. oral)?
**A.** improvements

**Q.** What about the stool score ([1]; 4.0% DSS, 100 mg/kg eq. oral) of the same compound?
**A.** improvements

**Q.** And the “colon histology (scored by a blinded pathologist)” value [1, 7]?
**A.** significantly improved

**Q.** And the colon length [1, 7]?
**A.** normalization of colon length

**Q.** What about the “number and depth of ulcerations and degree of inflammatory infiltration” value [1, 7] of the same compound?
**A.** reduced

**Q.** And the “efficacy in DSS colitis” value ([1]; 4.0% DSS, oral once daily, 1 mg/kg eq.)?
**A.** non-efficacious

**Q.** And the “efficacy in DSS colitis” value ([1]; 4.0% DSS, oral once daily, 10 mg/kg eq.)?
**A.** effective

**Q.** And the “colitis severity (DAI)” value ([1]; 4.0% DSS, oral once daily, 100 mg/kg eq., as early as study day 3)?
**A.** significantly decreased

**Q.** With `C[C@H](CCNC(=O)CCC(CP(=O)(O)O)C(=O)O)[C@H]1CCC2C3CC[C@@H]4C[C@H](O)CC[C@]4(C)C3C[C@H](O)[C@@]21C` (stereo partly drawn) [IS-101-077, 5-(((3R)-3-((3R,10S,12S,13R,17R)-3,12-Dihydroxy-10,13-dimethylhexadecahydro-1H-cyclopenta[a]phenanthren-17-yl)butyl)amino)-5-oxo-2-(phosphonomethyl)pentanoic acid] as the compound, how does the “anti-IBD activity: disease activity index (DAI)” value [1, 5] read?
**A.** significant reductions in DAI

**Q.** With `C[C@H](CCC(=O)OCOC(=O)CCC(CP(=O)(O)O)C(=O)O)C1CCC2C3C(C[C@H](O)[C@@]21C)[C@@]1(C)CC[C@@H](O)C[C@H]1C[C@H]3O` (mixture of isomers) [LTP588, 5-Oxo-2-(phosphonomethyl)-5-((((4R)-4-((3R,7R,10S,12S,13R)-3,7,12-trihydroxy-10,13-dimethylhexadecahydro-1H-cyclopenta[a]phenanthren-17-yl)pentanoyl)oxy)methoxy) pentanoic acid] as the compound, how does the “anti-IBD activity: disease activity index (DAI)” value [1, 5] read?
**A.** inactive
